The source of these data is ChEMBL document CHEMBL3400015, “Tertiary amides of Salinomycin: A new group of antibacterial agents against Bacillus anthracis and methicillin-resistant Staphylococcus epidermidis” (Bioorg Med Chem Lett, 2015).

Data set [1] relates to Bacillus anthracis. As to the kind of experiment: Antimicrobial activity against Bacillus anthracis 34F2 after 18 hrs by twofold serial broth dilution method. In kind it is functional. The note with it: 34F2, 18 h. In general terms: Broth dilution looks for growth in wells or tubes with falling amounts of substance.
Data set [2] has as its system Bacillus subtilis. The data set is described as follows: Genotoxicity in rec-positive Bacillus subtilis H17 at 2 ug/9 mm disc after 24 hrs by disc diffusion method. In kind it is toxicity, organism-based. (In general: A growth-free zone around the sample is the usual read-out of agar diffusion tests.)
Data set [3] has as its system Bacillus subtilis. As to the kind of experiment: Genotoxicity in rec-negative Bacillus subtilis M45 at 2 ug/9 mm disc after 24 hrs by disc diffusion method. It is filed as toxicity, organism-based.

The structures appear in SMILES notation. ≈ marks a conversion by molar mass, not a printed value.

Usually MIC stands for the smallest concentration in the dilution series that meets the test's criterion for growth inhibition. The low end stands for inhibition by little substance, the high end for a need for much substance. As for `CC[C@@H](C(=O)[C@@H](C)[C@@H](O)[C@H](C)[C@@H]1O[C@@H]([C@@H](CC)C(=O)O)CC[C@@H]1C)[C@H]1O[C@]2(C=C[C@@H](O)[C@]3(CC[C@@](C)([C@H]4CC[C@](O)(CC)[C@H](C)O4)O3)O2)[C@H](C)C[C@@H]1C` [SALINOMYCIN], the lowest concentration to inhibit growth in data set [1] (MIC) was 1 µg/mL (≈ 1.33 µM). Besides, the “diameter of the inhibition zone (DIZ)” value in data set [2] turned out to be 31 mm; in data set [3], 32 mm. As for `CC[C@@]1([C@H]2O[C@H]([C@H]3O[C@@](O)(CO)[C@H](C)C[C@@H]3C)C[C@H]2C)CC[C@H]([C@@]2(C)CC[C@]3(C[C@H](O)[C@@H](C)[C@@H]([C@H](C)[C@H](OC)[C@@H](C)C(=O)[O-])O3)O2)O1.[Na+]` [MONENSIN SODIUM], it took 1 µg/mL to inhibit growth in data set [1] (MIC).

On to `O=[N+]([O-])c1cc[n+]([O-])c2ccccc12` [4-NITROQUINOLINE-1-OXIDE], for which the entries for the “diameter of the inhibition zone (DIZ)” value in data set [2] and in data set [3] were 13 mm and 24 mm, respectively. The compound `CC[C@@H](C(=O)[C@@H](C)[C@@H](O)[C@H](C)[C@@H]1O[C@@H]([C@@H](CC)C(=O)[O-])CC[C@@H]1C)[C@H]1O[C@]2(C=C[C@@H](O)[C@]3(CC[C@@](C)([C@H]4CC[C@](O)(CC)[C@H](C)O4)O3)O2)[C@H](C)C[C@@H]1C.[Na+]` [SALINOMYCIN SODIUM] gave an MIC in data set [1] of 1 µg/mL.
